Measured values from patent US5670538A, “Use of prodelphinidins for obtaining medicaments intended for the treatment of arthrosis” (Laboratoires Dolisos, priority 1992, dated 1997).

What was measured:
[1] = test system: human articular chondrocytes; experiment: Radioimmunoassay of type II collagen (coll. II) produced in tridimensional culture of human chondrocytes; type: cell-based
Excerpt: The model used for testing the proanthocyanidols, namely the tridimensional culture of human chondrocytes allows chondrorepair to be quantified by the production of matrix substances: type II collagen, proteoglycans, and chondroresorption by the reduction in the levels of prostaglandin E2 and of OH° and O°2 type free radicals produced.
1. Tridimensional culture of human chondrocytes
The technique used has been described in detail (Bassleer et al., 1986).
Briefly, human articular chondrocytes are cultivated in DMEM (Dulbecco's Modification of Eagle's Medium--ICN--Gand, Belgium) with either Ultroser G 1% (GIBCO, Gand, Belgium) or 10% of foetal calf serum (ICN--Gand--Belgium), and 50 μg of ascorbic acid/ml added to it. The cartilage originates from the apparently normal zone of heads of human femur suffering from arthrosis, immediately after an operation carried out to insert a total hip prosthesis; it can also originate from the head of a healthy femur, but which has undergone a traumatism and has had to be replaced. This cartilage is then digested by clostridial collagenase 1 mg/ml (Boehringer-Mannheim, Germany) in a buffer (NaCl 120 mM, CaCl2 1 mM, KCl 5 mM, KH2 PO4 1 mM, NaHCO3 25 mM, glucose 2 mM and Hepes 30 mM, pH 7.4) for 24 hours. After 6 successive washings and centrifugations, the chondrocytes, isolated from their matrix, are cultured in flasks (10^6 cells/2 ml of culture medium) placed on a gyrator (10 rpm). The cultures are kept at 37° C. in an atmosphere of air 95%-CO2 5% (Bassleer et al., 1986). Cultivated under these conditions, after 4 to 5 days the chondrocytes form a tridimensional cluster in each flask. These clusters, which at first have a flocculent appearance, then tend to condense during the culture. After two weeks, their diameter is, in general, from 1 to 2 mm.
The fresh weight of the clusters increases with the duration of the culture, above all during the few first days.
3. Radioimmunoassay of type II collagen (coll. II)
The method for the radioimmunoassay of coll. II has been described in detail (Henrotin et al., 1990). The coll. II is extracted from human articular cartilage according to the technique described by Herbage et al. (1977). The antiserum against coll. II was obtained from rabbits according to the technique of Vaitukaitis et al. (1971).
The assay is carried out by sequential saturation. In the first instance, the radioimmunoassay is carried out in a 0.3 ml volume consisting of 0.2 ml of incubation buffer (PBS-50 mM PO4, 300 mM NaCl, 5 g/l BSA (W/V), 6.7 mM sodium azide, pH 7.4) containing the reference coll. II (0.5 to 500 ng) or the sample to be assayed and 0.1 ml of anti-coll. II antiserum from guinea pigs diluted to 1/5000 (24 hours at 4° C.). In the second instance, 0.1 ml of ^125 I-coll. II tracer labelled according to the iodogenic technique (Salacynski et al., 1979 and diluted so as to obtain 20,000 cpm/0.1 ml) is added. After 24 hours at 4° C., the collagen-antibody complexes are separated from the free radioactive coll. II by the double antibody system (Franchimont et al. 1983). Sequential saturation gives a sensitivity of 3 ng/tube. The accuracy of the method is 10%. The coefficients of the intra- and inter assay variation are 10% and 20% respectively.
The assay is specific to human articular type II collagen.
No cross reaction is obtained with bovine collagen of type I, III or IV.
The culture media are stored at -20° C. in the presence of enzymatic inhibitors (Oegema et al., 1975). These media are assayed by the radio immunological method without any treatment beforehand. The chondrocyte clusters are washed and dissociated with ultrasonics according to the method described for the assay of the PGs. After centrifugation (1500 rpm, 10 minutes), the residue is extracted using 500 mM acetic acid under agitation for 24 hours at 4° C. The supernatant of the homogenate and the extract of the residue are mixed together and assayed after equilibration at pH 7.4 using 4M NaOH.
The recovery of coll. […]

[2] = Production of OH° hydroxyl radicals (gamma irradiation, KMB substrate, ethylene by gas chromatography); type: biochemical; settings: for % inhibition of the production of hydroxyl radicals: Substrate: KMB, relative to the controls
Method: 8. Production of OH° hydroxyl radicals
The products are dissolved in 10 ml flasks at the required concentration in phosphate buffer: 6.6.10^-2 M, pH 7.4 in the presence of alpha keto methiolbutyric acid (10^-3 M: KMB). After the flasks have been hermetically sealed, the samples are irradiated with gamma rays provided by a ^137 Cs source.
The OH° radicals produced by the gamma radiation react with the KMB to produce the ethylene detected by a gas chromatograph. The height of the ethylene peak is proportional to the quantity of free radicals formed in the medium (Weis et al., 1978).

[3] = Antilipoperoxidizing activity (gamma irradiation, linoleic acid substrate, pentane); type: biochemical; settings: for % inhibition of pentane release from linoleic acid (lipid peroxidation): Substrate: Linoleic acid, relative to the controls
Method: 9. Antilipoperoxidizing activity
Similar to the preceding anti-radical method but where the KMB is replaced by linoleic acid (C18: 2), the gamma radiation releases pentane which is analyzed. The height of the pentane peak is proportional to the quantity free of radicals formed in the medium.

For `Oc1cc(O)c2c(c1)O[C@H](c1cc(O)c(O)c(O)c1)[C@@H](O)[C@@H]2c1c(O)cc(O)c2c1O[C@H](c1cc(O)c(O)c(O)c1)[C@@H](O)C2` [Substance Ib, GC-(4 alpha→8) GC], the “Average concentrations (m ± SD) of type II collagen in the clusters of chondrocytes at the end of 12 days of culture” value (“Average concentrations (m ± SD)” below) ([1]; 1% Ultroser G, 1 μg/ml) was 98 ± 9 ng per μg of DNA, the “Cumulative release of coll.II over 12 days, Abs” value ([1]; 1% Ultroser G, 1 μg/ml) was 394 ng/μg DNA/12 days and the “Average concentrations (m ± SD)” value ([1]; 1% Ultroser G, 10 μg/ml) was 121 ± 10 ng per μg of DNA. For the same molecule, the “Cumulative release of coll.II over 12 days, Abs” value ([1]; 1% Ultroser G, 10 μg/ml) was 572 ng/μg DNA/12 days, the “Average concentrations (m ± SD)” value ([1]; 1% Ultroser G, 100 μg/ml) was 158 ± 16 ng per μg of DNA and the “Cumulative release of coll.II over 12 days, Abs” value ([1]; 1% Ultroser G, 100 μg/ml) was 728 ng/μg DNA/12 days. The “Coll. II released in the culture medium” value ([1]; 1% Ultroser G, culture time 0-4 days, 1 μg/ml) was 222 ± 26 ng/μg DNA/96 h, the “Coll. II released in the culture medium” value ([1]; 1% Ultroser G, culture time 0-4 days, 10 μg/ml) was 322 ± 33 ng/μg DNA/96 h and the “Coll. II released in the culture medium” value ([1]; 1% Ultroser G, culture time 0-4 days, 100 μg/ml) was 392 ± 46 ng/μg DNA/96 h. For the same molecule, the “Coll. II released in the culture medium” value ([1]; 1% Ultroser G, culture time 4-8 days, 1 μg/ml) was 112 ± 19 ng/μg DNA/96 h, the “Coll. II released in the culture medium” value ([1]; 1% Ultroser G, culture time 4-8 days, 10 μg/ml) was 158 ± 14 ng/μg DNA/96 h and the “Coll. II released in the culture medium” value ([1]; 1% Ultroser G, culture time 4-8 days, 100 μg/ml) was 190 ± 22 ng/μg DNA/96 h. The “Coll. II released in the culture medium” value ([1]; 1% Ultroser G, culture time 8-12 days, 1 μg/ml) was 59.9 ± 0.6 ng/μg DNA/96 h, the “Coll. II released in the culture medium” value ([1]; 1% Ultroser G, culture time 8-12 days, 10 μg/ml) was 91.7 ± 6.1 ng/μg DNA/96 h and the “Coll. II released in the culture medium” value ([1]; 1% Ultroser G, culture time 8-12 days, 100 μg/ml) was 137.7 ± 13.4 ng/μg DNA/96 h. For the same molecule, the activity at 1 µg/mL ([1]; Homo sapiens, Chondrocyte, 288 h, 1% Ultroser G, 1 μg/ml, control = 100, read-out: Cumulative release of coll.II over 12 days, %) was 107%, the activity at 10 µg/mL ([1]; Homo sapiens, Chondrocyte, 288 h, 1% Ultroser G, 10 μg/ml, control = 100, read-out: Cumulative release of coll.II over 12 days, %) was 155% and the activity at 100 µg/mL ([1]; Homo sapiens, Chondrocyte, 288 h, 1% Ultroser G, 100 μg/ml, control = 100, read-out: Cumulative release of coll.II over 12 days, %) was 197%. The “Type II collagen in the culture media, effect in words” value ([1]; foetal calf serum, 10 and 100 μg/ml) was “increases”, the “Coll. II released in the culture medium” value ([1]; foetal calf serum, Table 18, 0-4 days, 10 μg/ml) was 41.4 ± 0.51 ng/μg DNA/96 H and the “Coll. II released in the culture medium” value ([1]; foetal calf serum, Table 18, 0-4 days, 100 μg/ml) was 81.1 ± 20.2 ng/μg DNA/96 H. The “Coll. II released in the culture medium” value ([1]; foetal calf serum, Table 18, 4-8 days, 10 μg/ml) was 33.3 ± 4.61 ng/μg DNA/96 H, the “Coll. II released in the culture medium” value ([1]; foetal calf serum, Table 18, 4-8 days, 100 μg/ml) was 55.0 ± 17.21 ng/μg DNA/96 H and the “Coll. II released in the culture medium” value ([1]; foetal calf serum, Table 19, 0-4 days, 10 μg/ml) was 38.2 ± 2.60 ng/μg DNA/96 H. For the same molecule, the “Coll. II released in the culture medium” value ([1]; foetal calf serum, Table 19, 0-4 days, 100 μg/ml) was 56.3 ± 12.41 ng/μg DNA/96 H, the “Coll. II released in the culture medium” value ([1]; foetal calf serum, Table 19, 4-8 days, 10 μg/ml) was 29.6 ± 3.44 ng/μg DNA/96 H and the “Coll. II released in the culture medium” value ([1]; foetal calf serum, Table 19, 4-8 days, 100 μg/ml) was 46.3 ± 2.61 ng/μg DNA/96 H. The “Coll. II in the clusters” value ([1]; foetal calf serum, experiment 397, 4-8 days, 10 μg/ml) was 81.6 ± 16.00 ng/μg DNA, the “Coll. II in the clusters” value ([1]; foetal calf serum, experiment 397, 4-8 days, 100 μg/ml) was 113.2 ± 18.25 ng/μg DNA and the “Collagen II in the clusters, effect in words” value ([1]; foetal calf serum, experiment 397, 10 and 100 μg/ml) was “An increase in collagen II is observed”. For the same molecule, the “% inhibition of the production of hydroxyl radicals” value (“% inhibition … of hydroxyl radicals” for short) ([2]; 10^-3 M) was 80%, the “% inhibition … of hydroxyl radicals” value ([2]; 10^-4 M) was 46% and the “% inhibition … of hydroxyl radicals” value ([2]; 10^-5 M) was 25%. The “Production of free radicals from KMB, effect in words” value ([2]; Table 22) was “significantly inhibits”, the “% inhibition of pentane release from linoleic acid (lipid peroxidation)” value (“% inhibition of pentane release” below) ([3]; 10^-3 M) was 93% and the “% inhibition of pentane release” value ([3]; 10^-4 M) was 45%. The “% inhibition of pentane release” value ([3]; 10^-5 M) was 0% and the “Production of free radicals from linoleic acid, effect in words” value ([3]; Table 23) was “significantly inhibits”.
